Test results reported in article PMC4481867 (Bioorganic & medicinal chemistry letters, 2012).

Assay: Solubility
Assay type: physicochemical
Conditions: precipitation at higher concentrations in the assay

- solubility: poor solubility
SMILES: O=C(Nc1ccc(-c2ccccc2)cc1)Nc1ccc(-c2ccnc3[nH]cnc23)cc1 [Compound 17]
